Results reported in US11701361B2, “p110-delta inhibitors treat and prevent autoimmunity while sparing the ability to mount an immune response to exogenous immunogens” (THE REGENTS OF THE UNIVERSITY OF COLORADO, priority 2018, dated 2023).

Tested on: MD4 B cells
Assay: MD4 B cell adoptive transfer, response to HEL-SRBC immunization
Assay type: in vivo, mouse
Procedure: 2 hours before adoptive transfer, C57BL/6 recipient mice received 200 rads irradiation. […] B cells from donor mice were isolated via depletion of CD43+ cells with anti-CD43-conjugated magnetic beads (MACS anti-mouse CD43; Miltenyi Biotec). Alternatively, CD4+ T cells were isolated via CD4 positive selection (MACS anti-mouse CD4 (L3T4) Miltenyi Biotec). Resultant populations were >97% pure based on flow cytometric analyses. Donor B cells were labeled with either CellTrace Violet (Molecular Probes) or CFSE (Molecular Probes) at 5 μM for 5 minutes at room temperature prior to transfer. Donor CD4 T cells were labeled with CFSE (Molecular Probes) at 5 μM for 5 minutes at room temperature prior to transfer. 1-2×10^6 donor cells in 200 μl PBS were adoptively transferred via IV injection. 24 hours post transfer, tamoxifen was administered to activate Cre. Tamoxifen (Sigma-Aldrich) was dissolved in 100% corn oil (Sigma-Aldrich) at 20 mg/ml. Recipient mice were injected IP with 100 μl (2 mg) on two consecutive days.
Diet dose (DD) is calculated by multiplying the single daily dose (SD) by the body weight of a mouse (BW) and dividing that by the daily food intake (FI) [DD=(SD×BW)/FI].
For VH125.NOD experiments animals are placed on control chow immediately after weaning.
HEL conjugated to SRBCs was used to produce antigen for experiments with MD4 B cells. SRBCs (Colorado Serum Company) were stored in Alsever's solution at 4° C. SRBCs are washed 3 times in PBS prior to use. 1 ml of 50 mg/ml of the chemical crosslinker N-(3-Dimethylaminopropyl)-N-ethylcarbodiimide hydrochloride (Sigma-Aldrich) was added to 1 ml packed SRBCs and 15 ml of 5 mg/ml HEL (Sigma-Aldrich), mixed and rotated at room temperature for 45 minutes. Mice were immunized IP with 200 μl of a 5% HEL-SRBC in PBS. For NP4Ova-Alum immunizations, 10 mg/ml alum and 5 mg/ml NP4Ova were mixed to a final concentration of 250 μg/ml NP4Ova and 2.5 mg/ml alum and rotated for 3 hours at room temperature. […] Mice were then immunized with NP4Ova-alum IP in 200 μl/mouse, and responses were measured on day 7 and day 14 post-immunization.
Spleens were mechanically disrupted, single-cell suspensions were generated, and red blood cells were lysed with ammonium chloride TRIS. Cells were resuspended in PBS containing 1% FBS and incubated with indicated antibodies. For analysis of cell surface markers, antibodies against the following molecules were used: B220-PE (BioLegend), B220-BV786 (BD Biosciences), B220-BV510 (BioLegend), CD4-BV711 (BioLegend), CD8-BV421 (BioLegend), CD138-PECy7 (BioLegend), CD69-BV786 (BD Biosciences), CD86-PerCPCy5.5 (BioLegend). After cell surface staining, the cells were fixed and permeabilized with Cytofix/Cytoperm (BD) per manufacturer's instructions and stained with Dylight650-E4 anti-Ars/A1 idiotype (produced and conjugated in our laboratory) OR HEL-650 (produced and conjugated in our laboratory) and Alexa Fluor 488-anti-GFP (rabbit polyclonal; Life Technologies). Events were collected on a CyAn ADP (Dako) and subsequent analysis using FlowJo software (Tree Star).
For detection of IgM^a anti-Ars antibodies, microtiter plates were coated with 10 μg/ml Ars-BSA16 in PBS and blocked with 2 mg/ml BSA in PBS 0.05% Tween-20. For detection of IgM^a anti-HEL antibodies, microtiter plates were coated with 10 μg/ml HEL in PBS and blocked with 2 mg/ml BSA in PBS 0.05% Tween-20. For detection of total NP-specific IgM and IgG, microtiter plates were coated with 20 μg/ml NP27BSA and blocked with 2 mg/ml BSA in PBS 0.05% Tween-20. For detection of high affinity NP-specific IgM and IgG, microtiter plates were coated with 20 μg/ml NP2BSA and blocked with 2 mg/ml BSA in PBS 0.05% Tween-20. Serial dilutions of mouse serum in PBS were added and incubated overnight at 4° C. Ars/A1-derived IgM^a antibodies and MD4-derived HEL IgM^a antibodies were detected with biotinylated DS.1 anti-IgM^a (BD Pharmingen) in PBS, followed by Streptavidin-HRP (Thermo Fisher Scientific). […]

[1] = 0.9375 mg/kg chow vs vehicle control, 5 days post immunization
[2] = 3.75 mg/kg and 30 mg/kg chow vs vehicle control, 5 days post immunization

SMILES: CC[C@H](Nc1ncnc2nc[nH]c12)c1nc2cccc(F)c2c(=O)n1-c1ccccc1 [idelalisib, 5-fluoro-3-phenyl-2-[(1S)-1-(7H-purin-6-ylamino)propyl]-4(3H)-quinazolinone]
- HEL-specific ASCs/spleen [1]: equivalent
- IgM anti-HEL antibody response [1]: equivalent
- proliferation of recovered MD4 B cells (3.75 mg/kg and 30 mg/kg chow): proliferated less than in controls
- recoverable transferred MD4 B cells in the spleen (3.75 mg/kg and 30 mg/kg chow): significant decreases
- IgM anti-HEL antibody response [2]: significantly reduced
- number of ASCs/spleen [2]: reduced
